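1) Cells in 96-well plates. 2) Compound, 48 h, 5 concentrations. 3) Linear interpolation between surrounding doses. 4) Unreached endpoint = highest concentration. At the GI50, growth is halved. Definition used: TGI = concentration required for complete inhibition of growth.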
Tests used:
Experiment in all cases: NCI tumour cell line growth inhibition, 48 h
[1] = tested on: DLD-1 colon
[2] = tested on: DMS 114 small cell lung
[3] = tested on: DMS 273 small cell lung
[4] = tested on: HOP-18 NSCLC
[5] = tested on: M19-MEL melanoma
[6] = tested on: RXF-631 renal
[7] = tested on: SNB-78 CNS
[8] = tested on: XF 498 CNS
[9] = tested on: MDA-N
[10] = tested on: P388 leukemia
[11] = tested on: P388/ADR leukemia
[12] = tested on: SN12K1 renal

SMILES	TGI [1] [µM]	TGI [2] [µM]	TGI [3] [µM]	TGI [4] [µM]	TGI [5] [µM]	TGI [6] [µM]	TGI [7] [µM]	TGI [8] [µM]	also measured
C=CCC1(C)CCCCC1(O)CS(=O)c1ccccc1 (stereo not drawn)	> 100	> 100	> 100	> 100	> 100	> 100	> 100	–	–
Nc1ccc(C2=N/C(=C\c3cccc(N)c3)C(=O)O2)cc1	> 100	> 100	–	–	> 100	> 100	> 100	> 100	–
c1ccc(NCCSc2nc3ccccc3s2)cc1	–	–	–	–	–	–	–	–	TGI [9]: > 100 µM
COc1cc(-c2nnc3n2NC=C(C(=O)O)S3)cc(OC)c1OC	> 79.9	> 70	> 82.9	> 100	> 100	> 100	> 100	> 100	–
Cc1ccc2c(c1-c1ccccc1)C(=O)OC2	> 100	> 100	> 100	> 100	> 100	> 100	> 100	–	–
Cc1c2c(C(N)=O)nccc2c(C)c2c1c1ccccc1n2Cc1ccccc1	–	–	–	–	–	–	–	–	TGI [9]: > 100 µM
CCOC(=O)C1=C(Nc2ccc(Br)cc2)OCC1=O	> 100	–	> 100	> 100	> 100	–	> 100	–	–
CS(=O)(=O)CS(=O)(=O)OCCCl	1450	339	995	1380	937	–	420	–	TGI [9]: 470 µM; TGI [10]: 306 µM; TGI [11]: 447 µM; TGI [12]: 963 µM
NC(=S)N/N=C1\CCCC\C1=C/c1ccccc1	> 100	> 100	82.6	> 100	> 100	> 100	> 100	–	–
Cn1c(=S)c2[nH]c(SCCCc3ccccc3)nc2n(C)c1=O	–	–	–	–	–	–	–	–	TGI [9]: > 100 µM
COC(=O)c1c[nH]cc1CCCCc1c[nH]cc1C(=O)OC	–	–	> 100	> 100	> 100	> 100	> 100	> 100	–
Cc1c(Cl)cccc1NC(=O)c1cccc([N+](=O)[O-])c1O	> 100	48.7	79.8	> 28.9	48	> 100	> 92.6	38.8	–
CCc1cccc(C)c1NC(=O)CC1C(=O)Nc2ccccc2S1=O (stereo not drawn)	> 100	–	> 100	–	–	–	> 100	> 100	–
Oc1ccc(/C=C/c2cc(O)cc3c2C(c2cc(O)cc(O)c2)C(c2ccc(O)c(O)c2)O3)cc1 (stereo not drawn)	–	–	–	–	–	–	–	–	TGI [9]: 56.9 µM
CC(C)(C)OC(=O)N1C2CCCC23O[C@@H]1c1cc2c(cc1C3=O)OCO2 (stereo partly drawn)	> 100	> 100	> 100	–	> 100	> 100	> 100	> 100	–
CCOC(=O)C(C)(c1c(C)[nH]c2ccccc12)c1c(C)[nH]c2ccccc12	75.9	41.6	31	–	–	–	49.2	39.4	–
CCC[CH2][Sn]1([CH2]CCC)[O]CC(COc2c(Cl)cc(Cl)cc2Cl)[O]1 (stereo not drawn)	2.95	1.58	3.44	2.71	2.22	–	3.49	–	GI50 [1]: 1.49 µM; GI50 [2]: 0.403 µM; GI50 [3]: 1.78 µM; GI50 [4]: 1.41 µM; GI50 [5]: 0.941 µM; GI50 [7]: 0.962 µM
O=[N+]([O-])c1ccc(Sc2c3ccccc3nc3ccccc23)cn1	–	–	–	–	–	–	–	–	TGI [9]: 31.8 µM
CC(=O)NC1CONC1=O (stereo not drawn)	–	–	–	–	–	–	–	–	TGI [9]: > 100 µM
COC(=O)C(=O)CC(=O)c1cccc(OC)c1	–	–	–	–	–	–	–	–	TGI [9]: > 100 µM

SMILES	TGI [1] [µM]	TGI [2] [µM]	TGI [3] [µM]	TGI [4] [µM]	TGI [5] [µM]	TGI [6] [µM]	TGI [7] [µM]	TGI [8] [µM]	also measured
COc1cc(/C=C/C(=O)Oc2ccccc2)ccc1C(=O)O/C=C/c1ccccc1	> 100	> 100	> 100	> 100	> 100	–	> 100	> 100	TGI [9]: > 100 µM; TGI [10]: > 100 µM; TGI [11]: > 100 µM; TGI [12]: > 100 µM
N#Cc1c(-c2ccco2)cc(-c2ccc(N)cc2)[nH]c1=O	> 100	> 100	> 100	> 100	–	> 100	–	–	–
C[P+](C)(C)c1ccccc1	> 100	> 100	> 100	> 100	> 100	> 100	–	> 100	–
CC(C)(C)c1cc(C(=O)/C=C/c2ccc(C(=O)O)cc2)cc(C(C)(C)C)c1	–	–	–	–	–	–	–	–	TGI [9]: 8.6 µM
COc1cc2c(cc1OC)C1Cc3cc(OC)c(OC)cc3N1CC2 (stereo not drawn)	> 100	37.5	–	–	80.5	–	> 100	43.6	–
O=C1c2ccc3c4ccccc4n(-c4ccccc4)c3c2C(=O)N1c1ccc(Cl)cc1	> 100	> 100	> 100	–	> 100	> 100	> 100	–	–
O=C1C2[C@@H](C(=O)N1c1ccc(Br)cc1)C13C(=CC2([N+](=O)[O-])[C@@H]2C(=O)N(c4ccc(Br)cc4)C(=O)[C@@H]21)c1ccccc1N3c1ccccc1 (stereo partly drawn)	> 100	> 100	–	> 100	> 100	> 100	> 100	> 100	–
NC(CCc1ncc(C(=O)O)s1)C(=O)O (stereo not drawn)	> 100	> 100	–	> 100	> 100	> 100	> 100	–	–
Cc1ccc(C)c(N2C(=O)C(=O)C(c3nc4ccccc4o3)/C(=N\NC(=O)c3ccccc3O)C2=O)c1 (stereo not drawn)	> 100	71.3	36.1	> 100	> 100	–	> 100	–	–
Cc1ccc2[c](c1)[Sn]([c]1ccccc1)([c]1ccccc1)[c]1cc(C)ccc1N2C	–	> 100	> 100	> 100	> 100	–	> 100	> 100	GI50 [2]: 28.7 µM; GI50 [3]: 44.5 µM; GI50 [4]: > 100 µM; GI50 [5]: 37.7 µM; GI50 [7]: 46.2 µM; GI50 [8]: 63.6 µM
NC(=O)c1cn(Cc2ccccc2)c(=O)n1Cc1ccccc1	> 100	–	> 100	> 100	> 100	–	> 100	> 100	–
CC(Cl)CN1c2ccccc2Sc2ccc(Cl)cc21 (stereo not drawn)	–	–	–	–	–	–	–	–	TGI [9]: > 10 µM
O=C1C=CC(=CC=C2C=CN(CCCCCCCCCCC(=O)NCCCCCCCCCCCC(=O)O)C=C2)C=C1	> 100	> 100	> 100	–	> 100	> 100	> 100	> 100	–
CC12CCC(=O)N1c1cccnc1N2 (stereo not drawn)	> 100	> 100	–	–	> 100	–	> 100	> 100	–
Cc1ccc(N2C(=O)N(c3ccc(C)cc3)C3(SC=NN3C)C2=O)cc1 (stereo not drawn)	> 100	> 100	–	> 100	> 100	–	> 100	–	–
C[Si](C)(C)CN1C(=O)c2ccccc2C1(O)c1ccccc1 (stereo not drawn)	> 100	> 100	> 100	> 100	–	> 100	> 100	> 100	–
CC1COS(=O)O1 (stereo not drawn)	> 100	> 100	> 100	> 100	> 100	–	> 100	> 100	–
C1=NC(N(Cc2ccccc2)Cc2ccccc2)N(Cc2ccccc2)N1 (stereo not drawn)	67.9	29.3	29.1	45.7	34.2	56	> 100	–	–
